Results taken from PubChem BioAssay AID1996.
Converted amounts (≈) assume the structure as drawn.

Conditions: buffer; pH 7.4; 200.0 µM

`Cc1[nH]c(C(=O)O)c(C#N)c1C(=O)c1ccccc1` and `O=C(O)C1=NN(c2ccccc2)C(=O)C1` cannot be ordered by solubility kinetic: > 38.1 µg/mL for the first, > 30.6 µg/mL for the second.

`CCc1nnc(NC(=O)CN2CCCC(C)C2)s1` (stereo unspecified) and `COc1ccc(C(=O)CCN2CCCC(C)C2)cc1.Cl` (stereo unspecified) cannot be ordered by solubility kinetic: > 40.3 µg/mL for the first, > 44.7 µg/mL for the second.

First: CCCOc1ccc(C(=O)Nc2ccc(CN3CCOCC3)cc2)cc1
Second: O=C(Oc1ccc(C(=S)N2CCOCC2)cc1)c1cccc([N+](=O)[O-])c1
The solubility kinetic of the first is higher: 4.1 µg/mL (≈ 11.6 µM) for the first, < 0.4 µg/mL for the second.

First: O=C(Nc1nc2ccccc2[nH]1)c1ccc(OC(F)F)cc1
Second: Nc1cccc(-c2nc3ccc(C(=O)c4ccccc4)cc3[nH]2)c1
The solubility kinetic of the first is 8.5-fold lower: 2.4 µg/mL (≈ 7.91 µM) for the first, 20.3 µg/mL (≈ 64.8 µM) for the second.

Going from `Cc1ccc(Oc2c(C)nc(-c3ccccc3)[nH]c2=O)cc1` to `COc1ccccc1Oc1nc(-c2cccnc2)nc2ccccc12`, the solubility kinetic rises from 1 µg/mL (≈ 3.42 µM) to 2.1 µg/mL (≈ 6.38 µM) (2.1-fold).

First: O=C(O/N=C1\CCS(=O)(=O)c2sccc21)c1ccc(F)cc1
Second: COC(=O)c1ccc(C(=O)NC2CCSc3ccccc32)cc1 (stereo unspecified)
The solubility kinetic of the first is 3.3-fold lower: 1.2 µg/mL (≈ 3.54 µM) for the first, 4 µg/mL (≈ 12.2 µM) for the second.

Going from `Cc1cnc(C(=O)Oc2c(C)ccc(C)c2C)cn1` to `Cc1ccc(C(=O)NCCCNC(=O)c2ccccc2C)cn1`, the solubility kinetic rises from 38.2 µg/mL (≈ 149 µM) to > 46.7 µg/mL.

Compared with `COc1cc(NC(=O)C2CCN(c3cnccn3)CC2)cc(OC)c1`, `COc1cccc(NC(=O)C2C(c3ccccc3)C2(Cl)Cl)c1` (stereo unspecified) is 6.7-fold lower in solubility kinetic: 47.1 µg/mL (≈ 138 µM) for the first, 7 µg/mL (≈ 20.8 µM) for the second.

Going from `Cc1ccc(CNC(=O)/C=C/C(=O)O)cc1` to `Cc1ccc2nc(SCC(=O)NCc3ccc(F)cc3)[nH]c2c1`, the solubility kinetic falls from > 32.9 µg/mL to 22.4 µg/mL (≈ 68 µM).

`CCC1CCCCN1C(=O)c1ccc([N+](=O)[O-])o1` (stereo unspecified) and `Cc1ccc(C(=O)OCC(=O)NC2CCCCC2)o1` cannot be ordered by solubility kinetic: > 37.8 µg/mL for the first, > 39.8 µg/mL for the second.

Going from `Cc1ccc(OCC(=O)N2CCc3ccccc32)c([N+](=O)[O-])n1` to `Cc1cccc(N2CCN(C(=O)Cc3ccccc3[N+](=O)[O-])CC2)c1C`, the solubility kinetic rises from 1 µg/mL (≈ 3.19 µM) to 3.3 µg/mL (≈ 9.34 µM) (3.3-fold).

Going from `COC(=O)[C@H](Cc1ccccc1)NC(=O)NCc1ccccc1` to `O=C(CSC(=O)c1ccccc1)Nc1ccccc1F`, the solubility kinetic falls from 45.4 µg/mL (≈ 145 µM) to 9.8 µg/mL (≈ 33.9 µM) (4.6-fold).

Going from `O=C(CNCc1ccccc1Cl)Nc1cc(S(=O)(=O)N2CCOCC2)ccc1Cl` to `CC(C)c1ccc(CSc2ccc(S(=O)(=O)N3CCOCC3)cn2)cc1`, the solubility kinetic falls from 14.5 µg/mL (≈ 31.6 µM) to 1.9 µg/mL (≈ 4.84 µM) (7.6-fold).

Compared with `CCOc1ccccc1NC(=O)COC(=O)C1CCC(=O)N1` (stereo unspecified), `Cc1nc(NC(=O)C2CC2)sc1C(=O)Nc1ccccc1Cl` is lower in solubility kinetic: > 45.9 µg/mL for the first, 2.1 µg/mL (≈ 6.25 µM) for the second.

First: Cc1ccc(C(=O)Nc2nccs2)s1
Second: O=C(Nc1nccs1)[C@@H]1CCCN1S(=O)(=O)c1ccc(Cl)cc1
The solubility kinetic of the first is 3.3-fold lower: 9.6 µg/mL (≈ 42.8 µM) for the first, 31.5 µg/mL (≈ 84.7 µM) for the second.

Compared with `CCN(C(=O)c1ccc(Br)cc1)c1ccccc1`, `O=C(Cc1ccc(-c2ccccc2)cc1)Nc1ccccn1` is 2.7-fold lower in solubility kinetic: 32.4 µg/mL (≈ 107 µM) for the first, 12 µg/mL (≈ 41.6 µM) for the second.

First: O=C(Nc1nnc(CCN2CCCCC2)s1)c1ccccc1Cl
Second: CN(Cc1cccs1)C(=O)c1ccc(Cl)c(S(=O)(=O)N2CCCCCC2)c1
The solubility kinetic of the first is higher: > 52.6 µg/mL for the first, 14.1 µg/mL (≈ 33 µM) for the second.

First: Cc1cccc(C(=O)NC2CC3CCCC(C2)N3Cc2ccccc2)c1 (stereo unspecified)
Second: CCCN1C2CCCC1CC(NC(=O)c1cccc(OC)c1)C2 (stereo unspecified)
The solubility kinetic of the first is lower: 11.1 µg/mL (≈ 31.9 µM) for the first, > 47.5 µg/mL for the second.

Going from `S=C(Nc1ccc(Cl)cc1Cl)N1CCCC1` to `O=C(N1CCCCC1)C1(c2ccccc2)CCCCC1`, the solubility kinetic falls from 8.6 µg/mL (≈ 31.2 µM) to 3.6 µg/mL (≈ 13.3 µM) (2.4-fold).

Going from `CC(=O)n1cc(C=C2C(=O)NC(=O)NC2=O)c2ccccc21` to `Cc1nc2ccc([N+](=O)[O-])cc2c(=O)n1Cc1ccccc1Br`, the solubility kinetic falls from 27.5 µg/mL (≈ 92.5 µM) to 2 µg/mL (≈ 5.34 µM) (14-fold).

Going from `COc1cccc(N(C(C)=O)C2=NCCCS2)c1` to `COc1cccc(C(=O)CC(C#N)c2ccc(F)cc2)c1` (stereo unspecified), the solubility kinetic falls from > 39.7 µg/mL to 16 µg/mL (≈ 56.5 µM).

Compared with `COc1ccc(C(=O)O/N=C(\N)c2ccccc2)cc1OC`, `COc1ccc(CNC(=O)CNC(=O)c2ccc(Br)o2)cc1OC` is 2.2-fold higher in solubility kinetic: 23.8 µg/mL (≈ 79.3 µM) for the first, 53.1 µg/mL (≈ 134 µM) for the second.

Compared with `CN(C)S(=O)(=O)N1CCN(c2ccc([N+](=O)[O-])c(NC3CC3)c2)CC1`, `O=[N+]([O-])c1cc(C(F)(F)F)ccc1NC1CCN(Cc2ccccc2)C1` (stereo unspecified) is 2.8-fold higher in solubility kinetic: 0.6 µg/mL (≈ 1.62 µM) for the first, 1.7 µg/mL (≈ 4.65 µM) for the second.

Compared with `Cc1cc(NC(=O)CSc2ccccn2)no1`, `Cc1onc(-c2ccccc2)c1CNC(=O)Nc1ccc(F)cc1F` is lower in solubility kinetic: > 37.4 µg/mL for the first, 4.1 µg/mL (≈ 11.9 µM) for the second.

First: COc1ccc(C(=O)O)cc1S(=O)(=O)Nc1ccc(C)cc1
Second: COc1ccc(N/C=C\C(=O)c2ccc3ccccc3c2)cc1
The solubility kinetic of the first is higher: > 48.2 µg/mL for the first, < 0.6 µg/mL for the second.

Compared with `Cc1ccc(N2C(=O)CC(Sc3nccc(C)n3)C2=O)cc1` (stereo unspecified), `Cc1ccc(N2C(=O)CC(Sc3cccs3)C2=O)cc1` (stereo unspecified) is lower in solubility kinetic: > 47 µg/mL for the first, 35 µg/mL (≈ 115 µM) for the second.

`CN(C)CCN1CC(O)=C(c2nc3ccccc3s2)C1=N` and `Cc1nc(N)sc1-c1csc(Nc2cccc(O)c2)n1` are within 1.5-fold of each other in solubility kinetic: 31.5 µg/mL (≈ 104 µM) for the first, 34.1 µg/mL (≈ 112 µM) for the second.

First: Cc1nc(Cl)sc1C(=O)Nc1cc(F)cc(F)c1
Second: CC(=O)c1sc(-c2ccc(Cl)cc2)cc1N
The solubility kinetic of the first is 12-fold higher: 20.7 µg/mL (≈ 71.7 µM) for the first, 1.8 µg/mL (≈ 7.15 µM) for the second.

Compared with `COc1cc([N+](=O)[O-])cc2sc(NC(=O)C(C)(C)C)nc12`, `CC(C)(C)NC(=O)c1cccc2c1-c1ccccc1C2=O` is higher in solubility kinetic: < 0.2 µg/mL for the first, 29.8 µg/mL (≈ 107 µM) for the second.

Going from `CCCCN(CC)C(=O)c1cc2cc3ccc(Cl)cc3nc2o1` to `COc1ccc(Cl)cc1C(=O)NCC(c1ccco1)N(C)C` (stereo unspecified), the solubility kinetic rises from 3.3 µg/mL (≈ 9.98 µM) to 45.1 µg/mL (≈ 140 µM) (14-fold).

`CCCC1C(=O)N(Cc2ccccc2)C(=O)CC1C` (stereo unspecified) and `Cc1cc(-c2ccccc2)nc(N(C)C)c1S(C)(=O)=O` are within 1.5-fold of each other in solubility kinetic: 31.1 µg/mL (≈ 120 µM) for the first, 25 µg/mL (≈ 86.1 µM) for the second.

Going from `Cc1cccc(N2C(=O)C3CCCN3C2=S)c1C` (stereo unspecified) to `Cc1cccc(C(=O)OCC(=O)N2CCCC2=O)c1[N+](=O)[O-]`, the solubility kinetic rises from 38.4 µg/mL (≈ 147 µM) to > 45.9 µg/mL.

First: COc1cc(OC)c(NC(=S)NCc2ccc(F)cc2)cc1Cl
Second: COc1cc(C(=O)NCc2cccs2)ccc1OCc1c(C)noc1C
The solubility kinetic of the first is 5.9-fold lower: 1 µg/mL (≈ 2.82 µM) for the first, 5.9 µg/mL (≈ 15.8 µM) for the second.

`Cc1nn(CC(=O)NC2CCCC2)c(C)c1[N+](=O)[O-]` and `CCCCNC(=O)CSc1nc(O)cc(=O)n1C1CCCC1` cannot be ordered by solubility kinetic: > 39.9 µg/mL for the first, > 48.8 µg/mL for the second.

Going from `CCCCC1CCC(C(=O)OC(C)C(=O)Nc2ccc(NC(C)=O)cc2)CC1` (stereo unspecified) to `Cc1cc(CNC(=O)COC(=O)C2CC3CCCC(C2)C3=O)cc(C)c1O` (stereo unspecified), the solubility kinetic rises from 9 µg/mL (≈ 23.2 µM) to > 56 µg/mL.

Going from `COC(=O)CC(c1ccccc1F)N1Cc2ccccc2C1=O` (stereo unspecified) to `S=c1nc(NCCc2ccccc2Cl)c2ccccc2[nH]1`, the solubility kinetic falls from > 47 µg/mL to 0.2 µg/mL (≈ 0.633 µM).

First: CN(C)c1ccc(NC(=O)C[n+]2ccccc2)cc1.[Cl-]
Second: Cc1ccc2c(CC(=O)N3CCN(c4ccccc4)CC3)coc2c1
The solubility kinetic of the first is higher: > 43.8 µg/mL for the first, 8.1 µg/mL (≈ 24.2 µM) for the second.

First: CC1CN(CCn2cnc3c(N)ncnc32)CC(C)O1 (stereo unspecified)
Second: COc1ccc(S(=O)Cc2ccc(C(=O)NC3CC3)o2)cc1 (stereo unspecified)
The solubility kinetic of the first is lower: 36.9 µg/mL (≈ 134 µM) for the first, > 47.9 µg/mL for the second.

`CCOC(=O)C1=C(C)NC(C)=C(C(=O)OCC)C1C(=O)OCC(=O)NCc1ccco1` and `CCn1c(SCC(=O)OC(C)C)nnc1-c1ccccc1OC` cannot be ordered by solubility kinetic: > 65.2 µg/mL for the first, > 50.3 µg/mL for the second.

Compared with `Clc1ccc(-c2nc(-c3cnccn3)no2)cc1`, `C=CCn1ccc(O)c(Cc2ccc(Cl)cc2)c1=O` is 12-fold higher in solubility kinetic: 3.2 µg/mL (≈ 12.4 µM) for the first, 38.6 µg/mL (≈ 140 µM) for the second.

Going from `N#C/C(=C\c1ccc(N2CCCCC2)o1)C(N)=O` to `Nc1ccc2c(c1)COC2=O`, the solubility kinetic falls from > 36.8 µg/mL to 22.2 µg/mL (≈ 149 µM).

Compared with `CC(C)(C)Nc1c(-c2cccs2)nc2ccccn12`, `CCN(C(=O)c1cccs1)c1nc(-c2ccc(OC)cc2)cs1` is 56-fold lower in solubility kinetic: 33.4 µg/mL (≈ 123 µM) for the first, 0.6 µg/mL (≈ 1.74 µM) for the second.

Compared with `O=C(O)c1cccc(N2C(=O)c3cccc4cccc(c34)C2=O)c1`, `O=S(=O)(c1ccsc1)N1CC=C(c2ccccc2)CC1` is lower in solubility kinetic: > 47.6 µg/mL for the first, 3.8 µg/mL (≈ 12.4 µM) for the second.
